These results are taken from ChEMBL document CHEMBL1140509, “Rynaxypyr: a new insecticidal anthranilic diamide that acts as a potent and selective ryanodine receptor activator” (Bioorg Med Chem Lett, 2007).

Each structure is given as a SMILES string. ≈ marks a conversion by molar mass, not a printed value.

The first test relates to Heliothis virescens. The test is described as follows: Insecticidal activity against Heliothis virescens. The format is functional.
`CNC(=O)c1cc(I)cc(C)c1NC(=O)c1cc(C(F)(F)F)nn1-c1ncccc1Cl` showed an LC50 of 0.21 µg/mL (≈ 0.373 µM).
Still for that read-out and setting: under `CNC(=O)c1cc(I)cc(C)c1NC(=O)c1cc(Br)nn1-c1ncccc1Cl` stands 0.16 µg/mL (≈ 0.278 µM); under `CNC(=O)c1cc(C(F)(F)F)cc(C)c1NC(=O)c1cc(C(F)(F)F)nn1-c1ncccc1Cl`, 0.66 µg/mL (≈ 1.3 µM); under `Cc1cc(Cl)cc(C(=O)NC(C)C)c1NC(=O)c1cc(OCC(F)(F)F)nn1-c1ncccc1Cl`, 0.09 µg/mL (≈ 0.17 µM).
On the same count and under the same terms, in the case of `CNC(=O)c1cc(Cl)cc(C)c1NC(=O)c1cc(Cl)nn1-c1ncccc1Cl` it was 0.07 µg/mL (≈ 0.16 µM); in that of `Cc1cc(Cl)cc(C(=O)NC(C)C)c1NC(=O)c1cc(Cl)nn1-c1ncccc1Cl`, 0.05 µg/mL (≈ 0.107 µM).
Still for that read-out and setting: under `Cc1cc(Br)cc(C(=O)NC(C)C)c1NC(=O)c1cc(C(F)(F)F)nn1-c1ncccc1Cl` stands 0.03 µg/mL (≈ 0.0551 µM); under `CNC(=O)c1cc(Cl)cc(C)c1NC(=O)c1cc(OCC(F)(F)F)nn1-c1ncccc1Cl`, 0.24 µg/mL (≈ 0.478 µM).
Compound `Cc1cc(Cl)cc(C(=O)NC(C)C)c1NC(=O)c1cc(OC(F)F)nn1-c1ncccc1Cl` gave an LC50 of 0.12 µg/mL (≈ 0.241 µM).

The subject of the next test is Plutella xylostella. The test is described as follows: Insecticidal activity against Plutella xylostella. The format is functional.
On to `CNC(=O)c1cc(I)cc(C)c1NC(=O)c1cc(C(F)(F)F)nn1-c1ncccc1Cl`, for which the LC50 stood at 0.1 µg/mL (≈ 0.177 µM).
The same measure, in the same setting: in the case of `CNC(=O)c1cc(I)cc(C)c1NC(=O)c1cc(Br)nn1-c1ncccc1Cl` it was 0.07 µg/mL (≈ 0.122 µM).
Same read-out and setting: under `CNC(=O)c1cc(C(F)(F)F)cc(C)c1NC(=O)c1cc(C(F)(F)F)nn1-c1ncccc1Cl` stands 0.09 µg/mL (≈ 0.178 µM); under `Cc1cc(Cl)cc(C(=O)NC(C)C)c1NC(=O)c1cc(OCC(F)(F)F)nn1-c1ncccc1Cl`, 0.01 µg/mL (≈ 0.0189 µM); under `CNC(=O)c1cc(Cl)cc(C)c1NC(=O)c1cc(Cl)nn1-c1ncccc1Cl`, 0.03 µg/mL (≈ 0.0684 µM).
Compound `Cc1cc(Cl)cc(C(=O)NC(C)C)c1NC(=O)c1cc(Cl)nn1-c1ncccc1Cl` displayed an LC50 of 0.09 µg/mL (≈ 0.193 µM).
The same measure, in the same setting: under `Cc1cc(Br)cc(C(=O)NC(C)C)c1NC(=O)c1cc(C(F)(F)F)nn1-c1ncccc1Cl` stands 0.01 µg/mL (≈ 0.0184 µM).
The same measure, in the same setting: under `CNC(=O)c1cc(Cl)cc(C)c1NC(=O)c1cc(OCC(F)(F)F)nn1-c1ncccc1Cl` stands 0.04 µg/mL (≈ 0.0796 µM); under `Cc1cc(Cl)cc(C(=O)NC(C)C)c1NC(=O)c1cc(OC(F)F)nn1-c1ncccc1Cl`, 0.1 µg/mL (≈ 0.201 µM).

Test system in a further test: not listed separately
The experiment in a line: Activation of Heliothis virescens recombinant ryanodine receptor expressed in Sf9 cells assessed as induction of calcium mobilization.
Regarding `CNC(=O)c1cc(I)cc(C)c1NC(=O)c1cc(C(F)(F)F)nn1-c1ncccc1Cl`, the EC50 stood at 205 nM.
Still for that read-out and setting: in the case of `CNC(=O)c1cc(I)cc(C)c1NC(=O)c1cc(Br)nn1-c1ncccc1Cl` it was 118 nM; in that of `Cc1cc(Cl)cc(C(=O)NC(C)C)c1NC(=O)c1cc(OCC(F)(F)F)nn1-c1ncccc1Cl`, 2730 nM; in that of `CNC(=O)c1cc(Cl)cc(C)c1NC(=O)c1cc(Cl)nn1-c1ncccc1Cl`, 69 nM.
As for `Cc1cc(Cl)cc(C(=O)NC(C)C)c1NC(=O)c1cc(Cl)nn1-c1ncccc1Cl`, the EC50 stood at 270 nM.
Still for that read-out and setting: in the case of `Cc1cc(Br)cc(C(=O)NC(C)C)c1NC(=O)c1cc(C(F)(F)F)nn1-c1ncccc1Cl` it was 1570 nM; in that of `CNC(=O)c1cc(Cl)cc(C)c1NC(=O)c1cc(OCC(F)(F)F)nn1-c1ncccc1Cl`, 240 nM.
On the same count and under the same terms, in the case of `Cc1cc(Cl)cc(C(=O)NC(C)C)c1NC(=O)c1cc(OC(F)F)nn1-c1ncccc1Cl` it was 511 nM.

The subject of the next test is Spodoptera frugiperda. The experiment in a line: Insecticidal activity against Spodoptera frugiperda. The test is classed as functional.
Compound `CNC(=O)c1cc(I)cc(C)c1NC(=O)c1cc(C(F)(F)F)nn1-c1ncccc1Cl` had an LC50 of 0.26 µg/mL (≈ 0.461 µM).
The same measure, in the same setting: under `CNC(=O)c1cc(I)cc(C)c1NC(=O)c1cc(Br)nn1-c1ncccc1Cl` stands 0.13 µg/mL (≈ 0.226 µM).
The same measure, in the same setting: in the case of `CNC(=O)c1cc(C(F)(F)F)cc(C)c1NC(=O)c1cc(C(F)(F)F)nn1-c1ncccc1Cl` it was 0.53 µg/mL (≈ 1.05 µM); in that of `Cc1cc(Cl)cc(C(=O)NC(C)C)c1NC(=O)c1cc(OCC(F)(F)F)nn1-c1ncccc1Cl`, 0.03 µg/mL (≈ 0.0566 µM); in that of `CNC(=O)c1cc(Cl)cc(C)c1NC(=O)c1cc(Cl)nn1-c1ncccc1Cl`, 0.03 µg/mL (≈ 0.0684 µM).
Same read-out and setting: under `Cc1cc(Cl)cc(C(=O)NC(C)C)c1NC(=O)c1cc(Cl)nn1-c1ncccc1Cl` stands 0.05 µg/mL (≈ 0.107 µM); under `Cc1cc(Br)cc(C(=O)NC(C)C)c1NC(=O)c1cc(C(F)(F)F)nn1-c1ncccc1Cl`, 0.03 µg/mL (≈ 0.0551 µM); under `CNC(=O)c1cc(Cl)cc(C)c1NC(=O)c1cc(OCC(F)(F)F)nn1-c1ncccc1Cl`, 0.11 µg/mL (≈ 0.219 µM).
As for `Cc1cc(Cl)cc(C(=O)NC(C)C)c1NC(=O)c1cc(OC(F)F)nn1-c1ncccc1Cl`, the LC50 is 0.14 µg/mL (≈ 0.281 µM).
